Where two headings read alike, the source gives them in different places.
What was measured:
Assay type in all cases: cell-based, human
HCT116 cells = experiment: HCT116 cell migration and invasion (Transwell); conditions: AOAA 1 mM, fibroblast-conditioned media
Experimental: FIG. 3. […] (A, B) The lentiviral shRNA vectors targeting CBS (shCBS) and CSE (shCSE) were transfected into HCT116 cells. A non-targeting sequence was used as control (shNT). […] Following CBS and CSE silencing, cells were seeded at the density of 3000 cells/well in xCELLigence plates and proliferation was monitored for 36 hours. […] The NCM356 cells were infected overnight with a CBS expressing adenovirus (Ad-CBS, 10 multiplicity of infection (MOI)) or its control, a green fluorescent protein (Ad-GFP). The culture media was then replaced and cells were seeded in XCelligence plates at 3000 cells/well. Cell proliferation was then measured real-time over 36 hours. […] (H, I) The effect of AOAA and NaHS was also tested on HCT116 cell migration (H) and invasion (I). Cells were pretreated either with vehicle or AOAA (1 mM) and seeded in serum-free DMEM (0.1% albumin) in the upper chamber of a trans-well insert uncoated (migration assay) or coated with growth factor reduced matrigel (invasion assay). Migration and invasion were stimulated by fibroblast-conditioned media in the lower chamber for 6 and 24 hours, respectively. […] (J) In a co-culture of human endothelial cells (EAhy926) and colon cancer cells (HCT116), HCT 116 cells were seeded in the lower chamber of a trans-well insert and cultured to confluence. Endothelial cells were then seeded into the upper chamber in serum-free DMEM and allowed to migrate for 4 hours at 37° C. […] Western blots are representative of at least three independent experiments; proliferation/migration/invasion assays and H2S measurements represent mean±SEM of n=3 determinations.
(§1) Cellular migration and invasion assays were performed as described (Chao et al. (1996) Cancer Res. 56:4811-19). Briefly, 10^5 cells were suspended in serum-free media containing 0.1% BSA and then added to 6.5 mm Transwell chambers ([…]) uncoated (migration assay) or coated with a thin layer (45 μl) of growth factor reduced matrigel (cell invasion assay). Cells were allowed to migrate toward the bottom chamber containing fibroblast (NIH-3T3 cells) conditioned media at 37° C. for 6 or 24 h for cell migration and invasion, respectively. Migrated and invaded cells were then fixed in Carson's fixative, stained in 0.33% toluidine blue and quantified by visual counting. For the HCT116-EAhy926 co-culture experiment, the cancer cell line was grown to confluence in the bottom wells of the transwell chambers and then endothelial cell migration was assessed (Coletta et al. (2012) Proc Natl Acad Sci USA. 109:9161-66).

HCT116 colon cancer cell [1] = experiment: HCT116 colon cancer cell proliferation (xCELLigence); conditions: Homo sapiens, HCT-116
Experimental: Cellular proliferation assays are conducted in HCT116 CRC cells in vitro, using the Roche XCelligence method. Concentration-response curves with the various AOAA analogs are prepared (concentration range: 1, 3, 10, 100, 300 and 600 μM). AOAA is used as the reference control, which, according to preliminary data, has an IC50 of approximately 300 μM. Control proliferation studies in the non-carcinogenic colonic epithelial cell line NCM356 are used to confirm cancer-cell selectivity. Since the NCM356 cells contain low levels of CBS, based on previous studies it is expect that AOAA (and its prodrugs) will only exert modest antiproliferative effects in these cells. Proliferation-inhibitory effects of the AOAA prodrugs in NCM356 cells indicate CBS-independent pharmacological actions. A collection of human colorectal tumor tissue samples (and surrounding non-cancerous tissue) are used to test the conversion of the AOAA prodrugs to AOAA in a number of cancer samples.
as §1, with “109:9161-66). For assessment of colon cell proliferation, the xCELLigence system (Roche) was used (Szabo and Papapetropoulos (2011) Br J Pharmacol. 164:853-65).” for “109:9161-66).”
For assessment of cell proliferation, the xCELLigence system (Roche) was used. Briefly, HCT116 cells were cultured until approximately 70% confluence. Cells were then detached by Trypsin-EDTA and resuspended in fresh culture media at a concentration of 30,000 cells/ml. 200 μl of cell suspension was added to each well (6,000 cells/well) of a E-plate 96, a specially designed 96-well microtiter plate containing interdigitated microelectrodes to non-invasively monitor the cell proliferation by measuring the relative change in the electrical impedance of the cell monolayer, a unitless parameter named cell index (CI). Cells were then treated with YD02-51 and proliferation was monitored for 48 hours.

HCT116 colon cancer cell [2] = experiment: as above; conditions: AOAA 1 mM; 36 hours

NOCC(=O)O [AOAA, aminooxyacetic acid]
HCT116 cell migration (HCT116 cells; 6 hours): markedly reduced | HCT116 cell invasion (HCT116 cells; matrigel, 24 hours): markedly reduced | inhibition at 300 µM (HCT116 colon cancer cell [1]; 300 μM, HCT116): 21% | IC50 (HCT116 colon cancer cell [1]; read-out: IC50 (μM), inhibition of HCT116 colon cancer cell proliferation): 1780 µM | IC50 (HCT116 colon cancer cell [1]; reference control, preliminary data, XCelligence, read-out: IC50, HCT116 proliferation (preliminary data)): ~300 µM | HCT116 cell proliferation (HCT116 colon cancer cell [2]): markedly reduced
